ChEMBL document CHEMBL3286360, “Tuning the antimicrobial pharmacophore to enable discovery of short lipopeptides with multiple modes of action” (Eur J Med Chem, 2014)
Values after ≈ are worked out from the molar mass of the structure shown. Where a SMILES comes first, the peptide text is derived from it. The star is where a group is joined. Stearoyl = CCCCCCCCCCCCCCCCCC(=O)*; Myristoyl = CCCCCCCCCCCCCC(=O)*; Decanoyl = CCCCCCCCCC(=O)*

Columns and labels:
Format in all cases: functional
Staphylococcus aureus = experiment: Antimicrobial activity against Staphylococcus aureus ATCC 12600 after 17 to 20 hrs by serial dilution method
Candida albicans = experiment: Antimicrobial activity against Candida albicans ATCC 14053 after 17 to 20 hrs by serial dilution method
Escherichia coli = experiment: Antimicrobial activity against Escherichia coli ATCC 25922 after 17 to 20 hrs by serial dilution method

CCCCCCCCCCCCCCCCCC(=O)N[C@@H](CCCNC(=N)N)C(=O)N[C@H](C(=O)N[C@@H](CCCCN)C(=O)N[C@@H](Cc1c[nH]c2ccccc12)C(=O)N[C@@H](CCCCN)C(N)=O)[C@@H](C)CC (Stearoyl-RIKWK-NH2) gave an MIC (Staphylococcus aureus) greater than 31.2 µg/mL, an MIC (Candida albicans) greater than 62.5 µg/mL and an MIC (Escherichia coli) greater than 31.2 µg/mL.

CCCCCCCCCC(=O)N[C@@H](CCCCN)C(=O)N[C@H](C(=O)N[C@@H](CCCNC(=N)N)C(=O)N[C@@H](Cc1c[nH]c2ccccc12)C(=O)N[C@@H](Cc1c[nH]c2ccccc12)C(=O)N[C@@H](CCCNC(=N)N)C(N)=O)[C@@H](C)CC (Decanoyl-KIRWWR-NH2) gave an MIC (Staphylococcus aureus) of 3.9 µg/mL (≈ 3.55 µM), an MIC (Candida albicans) greater than 62.5 µg/mL and an MIC (Escherichia coli) of 15.6 µg/mL (≈ 14.2 µM).

CCCCCCCCCCCCCC(=O)N[C@@H](CCCNC(=N)N)C(=O)N[C@H](C(=O)N[C@@H](CCCCN)C(=O)N[C@@H](Cc1c[nH]c2ccccc12)C(=O)N[C@@H](Cc1c[nH]c2ccccc12)C(=O)N[C@@H](CCCCN)C(N)=O)[C@@H](C)CC (Myristoyl-RIKWWK-NH2) gave an MIC (Staphylococcus aureus) of 7.8 µg/mL (≈ 6.93 µM), an MIC (Candida albicans) greater than 62.5 µg/mL and an MIC (Escherichia coli) of 15.6 µg/mL (≈ 13.9 µM).

CCCCCCCCCC(=O)N[C@@H](CCCNC(=N)N)C(=O)N[C@@H](Cc1c[nH]c2ccccc12)C(=O)N[C@@H](Cc1c[nH]c2ccccc12)C(=O)N[C@@H](CCCNC(=N)N)C(N)=O (Decanoyl-RWWR-NH2) was tested, and the MIC (Staphylococcus aureus) was 7.8 µg/mL (≈ 9.11 µM), the MIC (Candida albicans) was 15.6 µg/mL (≈ 18.2 µM) and the MIC (Escherichia coli) was 15.6 µg/mL (≈ 18.2 µM).

CCCCCCCCCCCCCC(=O)N[C@@H](CCCCN)C(=O)N[C@H](C(=O)N[C@@H](CCCCN)C(=O)N[C@@H](CCCNC(=N)N)C(=O)N[C@@H](Cc1c[nH]c2ccccc12)C(=O)N[C@@H](CCCNC(=N)N)C(N)=O)[C@@H](C)CC (Myristoyl-KIKRWR-NH2) showed an MIC (Staphylococcus aureus) of 3.9 µg/mL (≈ 3.56 µM), an MIC (Candida albicans) greater than 62.5 µg/mL and an MIC (Escherichia coli) of 15.6 µg/mL (≈ 14.2 µM).

With CCCCCCCCCCCCCC(=O)N[C@@H](CCCNC(=N)N)C(=O)N[C@@H](Cc1c[nH]c2ccccc12)C(=O)N[C@@H](Cc1c[nH]c2ccccc12)C(=O)N[C@@H](CCCNC(=N)N)C(N)=O (Myristoyl-RWWR-NH2) the MIC (Staphylococcus aureus) was 7.8 µg/mL (≈ 8.55 µM), the MIC (Candida albicans) was greater than 62.5 µg/mL and the MIC (Escherichia coli) was 15.6 µg/mL (≈ 17.1 µM).

Work on CCCCCCCCCCCCCC(=O)N[C@@H](CCCCN)C(=O)N[C@@H](CCCCN)C(=O)N[C@H](C(=O)N[C@@H](CCCNC(=N)N)C(=O)N[C@@H](Cc1c[nH]c2ccccc12)C(=O)N[C@@H](CCCNC(=N)N)C(N)=O)[C@@H](C)CC (Myristoyl-KKIRWR-NH2) yielded an MIC (Staphylococcus aureus) of 3.9 µg/mL (≈ 3.56 µM), an MIC (Candida albicans) greater than 62.5 µg/mL and an MIC (Escherichia coli) of 7.8 µg/mL (≈ 7.12 µM).

For CCCCCCCCCCCCCC(=O)N[C@@H](CCCCN)C(=O)N[C@H](C(=O)N[C@@H](CCCNC(=N)N)C(=O)N[C@@H](Cc1c[nH]c2ccccc12)C(=O)N[C@@H](Cc1c[nH]c2ccccc12)C(=O)N[C@@H](CCCNC(=N)N)C(N)=O)[C@@H](C)CC (Myristoyl-KIRWWR-NH2), the MIC (Staphylococcus aureus) was 15.6 µg/mL (≈ 13.5 µM), the MIC (Candida albicans) was greater than 62.5 µg/mL and the MIC (Escherichia coli) was 31.2 µg/mL (≈ 27 µM).

With CCCCCCCCCCCCCCCCCC(=O)N[C@@H](CCCCN)C(=O)N[C@@H](Cc1c[nH]c2ccccc12)C(=O)N[C@@H](CCCCN)C(N)=O (Stearoyl-Lys-Trp-Lys-NH2) the MIC (Staphylococcus aureus) was 31.2 µg/mL (≈ 43 µM), the MIC (Candida albicans) was greater than 62.5 µg/mL and the MIC (Escherichia coli) was greater than 31.2 µg/mL.

In the case of CCCCCCCCCCCCCCCCCC(=O)N[C@@H](CCCNC(=N)N)C(=O)N[C@@H](Cc1c[nH]c2ccccc12)C(=O)N[C@@H](CCCNC(=N)N)C(=O)N[C@@H](Cc1c[nH]c2ccccc12)C(N)=O (Stearoyl-RWRW-NH2), the MIC (Staphylococcus aureus) is reported as greater than 31.2 µg/mL, the MIC (Candida albicans) is reported as greater than 62.5 µg/mL and the MIC (Escherichia coli) is reported as greater than 31.2 µg/mL.

CCCCCCCCCCCCCCCCCC(=O)N[C@@H](CCCNC(=N)N)C(=O)N[C@@H](CCCCN)C(=O)N[C@@H](Cc1c[nH]c2ccccc12)C(=O)N[C@@H](Cc1c[nH]c2ccccc12)C(=O)N[C@@H](CCCCN)C(N)=O (Stearoyl-RKWWK-NH2) gave an MIC (Staphylococcus aureus) of 31.2 µg/mL (≈ 29.2 µM), an MIC (Candida albicans) greater than 62.5 µg/mL and an MIC (Escherichia coli) of 125 µg/mL (≈ 117 µM).

CCCCCCCCCCCCCC(=O)N[C@@H](CCCCN)C(=O)N[C@H](C(=O)N[C@@H](Cc1c[nH]c2ccccc12)C(=O)N[C@@H](Cc1c[nH]c2ccccc12)C(=O)N[C@@H](CCCCN)C(N)=O)[C@@H](C)CC (Myristoyl-KIWWK-NH2) gave an MIC (Staphylococcus aureus) of 7.8 µg/mL (≈ 8.05 µM), an MIC (Candida albicans) of 31.2 µg/mL (≈ 32.2 µM) and an MIC (Escherichia coli) of 31.2 µg/mL (≈ 32.2 µM).

Compound CCCCCCCCCCCCCCCCCC(=O)N[C@@H](CCCCN)C(=O)N[C@H](C(=O)N[C@@H](CCCCN)C(=O)N[C@@H](CCCNC(=N)N)C(=O)N[C@@H](Cc1c[nH]c2ccccc12)C(=O)N[C@@H](CCCNC(=N)N)C(N)=O)[C@@H](C)CC (Stearoyl-KIKRWR-NH2) has an MIC (Staphylococcus aureus) greater than 31.2 µg/mL, an MIC (Candida albicans) greater than 62.5 µg/mL and an MIC (Escherichia coli) greater than 31.2 µg/mL.

For CCCCCCCCCC(=O)N[C@@H](CCCCN)C(=O)N[C@@H](CCCCN)C(=O)N[C@H](C(=O)N[C@@H](CCCNC(=N)N)C(=O)N[C@@H](Cc1c[nH]c2ccccc12)C(=O)N[C@@H](CCCNC(=N)N)C(N)=O)[C@@H](C)CC (Decanoyl-KKIRWR-NH2), the MIC (Staphylococcus aureus) was 7.8 µg/mL (≈ 7.5 µM), the MIC (Candida albicans) was greater than 62.5 µg/mL and the MIC (Escherichia coli) was 7.8 µg/mL (≈ 7.5 µM).

CCCCCCCCCCCCCC(=O)N[C@@H](CCCCN)C(=O)N[C@H](C(=O)N[C@@H](CCCCN)C(=O)N[C@@H](CCCNC(=N)N)C(=O)N[C@@H](Cc1c[nH]c2ccccc12)C(=O)N[C@@H](Cc1c[nH]c2ccccc12)C(=O)N[C@@H](CCCNC(=N)N)C(N)=O)[C@@H](C)CC (Myristoyl-KIKRWWR-NH2) gave an MIC (Staphylococcus aureus) of 15.6 µg/mL (≈ 12.2 µM), an MIC (Candida albicans) greater than 62.5 µg/mL and an MIC (Escherichia coli) of 31.2 µg/mL (≈ 24.3 µM).
